Test results taken from US12491204B2, “Use of oleanolic acid-28-O-beta-D-glucopyranoside in preparation of anti-colitis drug” (JILIN UNIVERSITY, priority 2023, dated 2025).

Tests used:
[1] = system: DSS-induced UC model mice; test: Inflammatory factor and oxidative stress indicators by ELISA in serum and colon of DSS-induced UC model; format: in vivo, BALB/c male mice; settings: compared with model group; for IL-6 level / TNF-α level / iNOS level: serum and colon, gavage 5-ASA 100 mg/kg, 28-OA-β-G 5, 10, 20 mg/kg
Method: SPF-grade BALB/c male mice (weighting 22-24 g) were purchased from Changchun Yisi Laboratory Animal Technology Co., Ltd. After 1 week of adaptive feeding, the mice were randomly divided into 6 groups (n=10), including: a control group, a model group, a positive drug group (5-ASA, 100 mg/kg), an oleanolic acid-28-O-β-D-glucopyranoside low-dose group (28-OA-β-GL, 5 mg/kg), an oleanolic acid-28-O-β-D-glucopyranoside medium-dose group (28-OA-β-GM, 10 mg/kg), and an oleanolic acid-28-O-β-D-glucopyranoside high-dose group (28-OA-β-GH, 20 mg/kg). The control group was administrated with distilled water, while the other groups were freely allowed to drink a 3.5% dextran sulfate sodium (M.W.: 40,000 Da, DSS) solution for 7 days to induce a UC model. From the Day 4 to Day 10 of modeling, the mice in the control group and the model group were administrated with distilled water by gavage, while the mice in other groups were administrated with a 5-ASA or 28-OA-β-G solution by gavage, respectively. The gavage was performed once a day. The administration volume was 10 ml/kg. After fasting for 12 hours on the Day 10, whole blood was collected from all mice by using an eyeball blood collection method, the mice were killed by cervical dislocation, and colon tissues and spleen tissues were collected. Content determination of inflammatory factor and oxidative stress indicators: serum and colon tissue samples were collected, and the contents of TNF-α, IL-6, and iNOS in the serum and colon were determined using an ELISA kit, while the levels of MPO, SOD, and MDA in the colon were detected.

[2] = system: DSS-induced UC model mice; test: DSS-induced UC model: body weight, DAI score, colon length, spleen coefficient; format: in vivo, BALB/c male mice; settings: for weight loss rate: 3.5% DSS 7 days, gavage once a day Day 4 to Day 10, 28-OA-β-G 5, 10, 20 mg/kg
Method: (§1) SPF-grade BALB/c male mice (weighting 22-24 g) were purchased from Changchun Yisi Laboratory Animal Technology Co., Ltd. After 1 week of adaptive feeding, the mice were randomly divided into 6 groups (n=10), including: a control group, a model group, a positive drug group (5-ASA, 100 mg/kg), an oleanolic acid-28-O-β-D-glucopyranoside low-dose group (28-OA-β-GL, 5 mg/kg), an oleanolic acid-28-O-β-D-glucopyranoside medium-dose group (28-OA-β-GM, 10 mg/kg), and an oleanolic acid-28-O-β-D-glucopyranoside high-dose group (28-OA-β-GH, 20 mg/kg).
(§2) The control group was administrated with distilled water, while the other groups were freely allowed to drink a 3.5% dextran sulfate sodium (M.W.: 40,000 Da, DSS) solution for 7 days to induce a UC model. From the Day 4 to Day 10 of modeling, the mice in the control group and the model group were administrated with distilled water by gavage, while the mice in other groups were administrated with a 5-ASA or 28-OA-β-G solution by gavage, respectively. The gavage was performed once a day. The administration volume was 10 ml/kg. After fasting for 12 hours on the Day 10, whole blood was collected from all mice by using an eyeball blood collection method, the mice were killed by cervical dislocation, and colon tissues and spleen tissues were collected.
Body weight and disease activity index scores: during the experiment, all mice were weighed every day, and the general behavior states of the mice were observed; the weight changes, stool states and hematochezia degrees of the mice were recorded every day, and scored according to the criteria shown in Table 3; and an average disease activity index (DAI) score of the mice in each group per day was calculated according to the formula: DAI=(weight loss score+stool state score+hematochezia degree score)/3.
Spleen coefficient: the spleen tissues were dissected and accurately weighed, and the spleen coefficient was calculated using the formula: spleen coefficient=spleen mass (mg)/mouse weight (g), as shown in FIG. 10. The spleen coefficient also reflected the degree of inflammatory response within the body.

Caco-2 cells = test: Transmembrane epithelial resistance (TEER) in LPS-induced Caco-2 cells; format: cell-based, Human; settings: LPS 1 μg/ml + 28-OA-β-G 8 μM, 24 hours; compared with LPS treatment
Method: (§3) (1) Determination of Transmembrane Epithelial Resistance and Inflammatory Factors in Caco-2 Cells
(§4) The Caco-2 cells were inoculated at a density of 1×10^5 cells/ml (400 μl per well) into a Transwell chamber and cultured under 5% CO2 and 37° C. After Day 21, a medium was replaced with a basal MEM medium. […] Resistance values were measured using a transmembrane resistance meter. TEER value=(measured resistance value−control resistance value)×Transwell chamber area, expressed in Ω·cm^2. […]

[3] = system: DSS-induced UC model mice; test: Transmission electron microscope observation of mouse colon tissues; format: in vivo, BALB/c male mice; settings: 28-OA-β-GH group, 20 mg/kg; compared with model group
Method: as §1
as §2, with “collected. […]” for “collected.”

[4] = system: DSS-induced UC model mice; test: FD4 permeability analysis in DSS-induced UC model; format: in vivo, BALB/c male mice; settings: 20 mg/kg FD4 by gavage 30 minutes before sacrifice; 28-OA-β-G intervention; compared with model group
Method: as §1
The control group was administrated with distilled water, while the other groups were freely allowed to drink a 3.5% dextran sulfate sodium (M.W.: 40,000 Da, DSS) solution for 7 days to induce a UC model. […]
FD4 permeability analysis: all mice were administrated with 20 mg/kg FD4 normal saline solution by gavage 30 minutes before sacrifice, whole blood was collected by the eye blood collection method on a sterile ultra-clean table, and the upper serum was taken after centrifugation, and then aspirated into a black 96-well microplate. The fluorescence intensity was detected using a microplate reader at an excitation wavelength of 492 nm and an emission wavelength of 520 nm. […]

[5] = system: TNF-α, IL-6, and iNOS in Caco-2 cells; test: Inflammatory factors TNF-α, IL-6, iNOS by ELISA in LPS-induced Caco-2 cell model; format: cell-based, Human; settings: LPS 1 μg/ml, 24 hours; high-dose groups 8 μM
Method: as §3, §4

[6] = system: ZO-1, Occludin, Claudin-1, and E-cadherin in Caco-2 cells; test: Expression of tight junction proteins in Caco-2 cells by immunofluorescence; format: cell-based, Human; settings: 24 hours
Method: (2) Determination of Expression Level of Tight Junction Proteins in Caco-2 Cells
Caco-2 cells (1×10^5 cells/ml) were inoculated onto a cell climbing slice in a 24-well plate (with 600 μl of cells per well), and reached confluence within 2 days. The cells were divided into 7 groups: a control group, a model group (LPS 1 μg/ml), a 5-ASA group (LPS 1 μg/ml+5-ASA 50 μM), an LPS+28-OA-β-GL group (LPS 1 μg/ml+28-OA-β-G 2 μM), an LPS+28-OA-β-GM group (LPS 1 μg/ml+28-OA-β-G 4 μM), an LPS+28-OA-β-GH group (LPS 1 μg/ml+28-OA-β-G 8 μM), and a 28-OA-β-G group (28-OA-β-G 8 μM). The control group was added with a MEM medium, while the other groups were added with the corresponding doses of LPS and 28-OA-β-G with the MEN medium as a solvent, and incubated in a 5% CO2, 37° C. constant-temperature incubator for 24 hours. Immunofluorescence imaging was performed after a series of treatments.

SMILES: Nc1ccc(O)c(C(=O)O)c1 [5-ASA, 5-aminosalicylic acid, reference compound]
- IL-6 level [1]: significantly decreased
- TNF-α level [1]: significantly decreased
- iNOS level [1]: significantly decreased
- weight loss rate ([2]; 5-ASA 100 mg/kg): significantly reduced
- spleen coefficient ([2]; positive drug group, 5-ASA 100 mg/kg, compared with model group): significantly reduced

SMILES: CC1(C)CC[C@]2(C(=O)O[C@@H]3O[C@H](CO)[C@@H](O)[C@H](O)[C@H]3O)CC[C@]3(C)C(=CC[C@@H]4[C@@]5(C)CC[C@H](O)C(C)(C)[C@@H]5CC[C@]43C)[C@@H]2C1 [28-OA-β-G, Oleanolic acid-28-O-β-D-glucopyranoside]
- MDA level ([1]; colon): dose-dependently reduce
- MPO level ([1]; colon): dose-dependently reduce
- SOD level ([1]; colon): increased
- IL-6 level [1]: significantly decreased
- TNF-α level [1]: significantly decreased
- iNOS level [1]: significantly decreased
- weight loss rate ([2]; 5-ASA 100 mg/kg): significantly reduced
- weight changes, relation to dose ([2]; 28-OA-β-G 5, 10, 20 mg/kg gavage): positively correlated with the increase in dose
- spleen coefficient ([2]; 28-OA-β-G high-dose group, 20 mg/kg, compared with model group): significantly reduced
- spleen coefficient ([2]; 28-OA-β-G medium-dose group, 10 mg/kg, compared with model group): significantly reduced
- weight changes ([2]; 28-OA-β-GH group, 20 mg/kg gavage): tended towards the control group
- anti-ulcerative-colitis activity (overall conclusion) ([2]; DSS-induced UC model, compared with positive control 5-ASA): significant anti-ulcerative-colitis activity which was not statistically different from that of the positive control group of 5-ASA
- DAI score compared to the 5-ASA group ([2]; Day 10, 28-OA-β-GH group, 20 mg/kg, 5-ASA 100 mg/kg): no significant difference compared to the 5-ASA group
- DAI score ([2]; Day 10, 28-OA-β-GH group, 20 mg/kg, compared with model group): significantly lower than that in the model group
- colon length (degree of colon damage) ([2]; oral administration of 28-OA-β-G 5, 10, 20 mg/kg, compared with model group): effectively alleviated
- TEER value (Caco-2 cells): significantly increased
- ultrastructure of colonic mucosa cells (transmission electron microscope) [3]: restored the integrity of intestinal mucosa cells
- serum FD4 concentration (FD4 permeability) [4]: significantly reduced
- anti-inflammatory activity (TNF-α, IL-6, iNOS levels), comparison among compounds [5]: best anti-inflammatory activity among the high-dose administration groups
- distribution on the cell membrane and expression of the four tight junction proteins (ZO-1, Occludin, Claudin-1, E-cadherin) ([6]; LPS 1 μg/ml + 28-OA-β-G 2, 4, 8 μM, as dose increased): regained their normal distribution on the cell membrane and also increase the expression
- expression of the four tight junction proteins (ZO-1, Occludin, Claudin-1, E-cadherin) ([6]; normal cells without LPS, 28-OA-β-G alone 8 μM): not affected
